Laboratory results taken from patent US6579880B2, “Isoxazoles and oxadiazoles as anti-inflammatory inhibitors of IL-8” (Ortho-McNeil Pharmaceutical, Inc., priority 2000, dated 2003).

What follows are compounds tested on IL-8 receptor (purified human neutrophils) (assay: radio labeled IL-8 receptor binding assay in purified human neutrophils using I125-IL-8 as ligand). Settings: Table 1; inhibition of I125-IL-8 (0.125 nM) binding to human neutrophils, 37° C. 60 minutes; read-out: IC50.
Procedure: Neutrophils are purified from fresh human blood by dextran sedimentation in an equal volume of 3% dextran in saline for 30 minutes. After sedimentation, the blood is centrifuged for 10 minutes at 1000 rpm at 4° C. and the supernate is aspirated and discarded. […] Ten mls ficoll is underlaid of the blood and the sample is centrifuged for 40 minutes at 1400 rpm at 25° C. After centrifugation, the supernate is removed and the cells re-suspended for cell counting. Cell volume is adjusted to 8×10^5 cells/ml in binding buffer without BSA.
The plates are then incubated at 37° C. for 60 minutes and the supernate is aspirated to within 2 mm of the bottom of the well. The plates are then sealed and counted for 1 minute in a Packard TopCount.
Drug treated wells are compared to vehicle treated wells for inhibition of binding as determined by a decrease in dpm as compared to the vehicle wells.
% Inhibition is calculated as follows: [formula]
IC50 is calculated using K-Graph.

IC50 [µM] | Compound
2.7 | CN1CCN(CCCOc2ccc(-c3cc(-c4ccc(C(C)(C)C)cc4)no3)cc2)CC1 [Compound 4, piperazine, 1-[3-[4-[3-[4-(1,1-dimethylethyl)phenyl]-5-isoxazolyl]phenoxy]propyl]-4-methyl-]
2.7 | CN1CCN(CCCOc2ccc(-c3cc(-c4ccc(Cl)c(C(F)(F)F)c4)no3)cc2)CC1 [Compound 8, piperazine, 1-[3-[4-[3-[4-chloro-3-(trifluoromethyl)phenyl]-5-isoxazolyl]phenoxy]propyl]-4-methyl-]
2.8 | Clc1ccc(-c2noc(-c3ccc(OCCCN4CCNCC4)cc3)n2)cc1 [Compound 15, piperazine, 1-[3-[4-[3-(4-chlorophenyl)-1,2,4-oxadiazol-5-yl]phenoxy]propyl]-]

Same assay, conditions: Table 2; inhibition of I125-IL-8 (0.125 nM) binding to human neutrophils, 37° C. 60 minutes; read-out: IC50

IC50 [µM] | Compound
5.1 | Cc1ccc(-c2cc(-c3ccc(OCCCN(C)C)cc3)no2)cc1 [Compound 19]
2.7 | CN(C)CCCOc1ccc(-c2cc(-c3ccc(Cl)cc3)on2)cc1 [Compound 21, 1-propanamine, 3-[4-[5-(4-chlorophenyl)-3-isoxazolyl]phenoxy]-N, N-dimethyl-]
3.1 | CN(C)CCCOc1ccc(-c2cc(-c3ccc(F)cc3)on2)cc1 [Compound 22]
6.2 | CN1CCN(CCCOc2ccc(-c3cc(-c4ccccc4)on3)cc2)CC1 [Compound 25]
1.6 | CN1CCN(CCCOc2ccc(-c3cc(-c4ccc(Cl)cc4)on3)cc2)CC1 [Compound 27, piperazine, 1-[3-[4-[5-(4-chlorophenyl)-3-isoxazolyl]phenoxy]propyl]-4-methyl-]
10.9 | CN(C)CCCOc1ccc(-c2noc(-c3ccccc3)c2Br)cc1 [Compound 28]
6 | CN(C)CCCOc1ccc(-c2noc(-c3ccccc3)c2Cl)cc1 [Compound 29]
8.1 | CN(C)CCCOc1cccc(-c2cc(-c3ccc(Cl)cc3)on2)c1 [Compound 32]
5.1 | Cc1ccc(-c2cc(-c3cccc(OCCCN(C)C)c3)no2)cc1 [Compound 33]
10.3 | CN(C)CCCOc1cccc(-c2cc(-c3ccccc3)on2)c1 [Compound 34]
12.1 | CN1CCN(CCCOc2ccccc2-c2cc(-c3ccccc3)on2)CC1 [Compound 35]
5.6 | CN1CCN(CCCOc2ccccc2-c2cc(-c3ccc(Cl)cc3)on2)CC1 [Compound 36]
6.5 | CCN(CC)CCCOc1ccccc1-c1cc(-c2ccccc2)on1 [Compound 37]
4.4 | CN(C)CCCOc1ccccc1-c1cc(-c2ccc(Cl)cc2)on1 [Compound 38]
8.9 | CN1CCN(CCCCOc2ccc(-c3cc(-c4ccc(Cl)cc4)on3)cc2)CC1 [Compound 39]
3.9 | CN(C)CCCCOc1ccc(-c2cc(-c3ccc(Cl)cc3)on2)cc1 [Compound 40]
11 | CN1CCN(CCCCOc2ccccc2-c2cc(-c3ccc(Cl)cc3)on2)CC1 [Compound 41]

Same assay, conditions: Table 3; inhibition of I125-IL-8 (0.125 nM) binding to human neutrophils, 37° C. 60 minutes; read-out: IC50

IC50 [µM] | Compound
5.3 | CN1CCCC(COc2ccc(-c3cc(-c4ccccc4)on3)cc2)C1 (stereo not shown) [Compound 43]
7.6 | CN1CCC(Oc2ccc(-c3cc(-c4ccccc4)on3)cc2)CC1 [Compound 44]

Same assay, conditions: Table 4; inhibition of I125-IL-8 (0.125 nM) binding to human neutrophils, 37° C. 60 minutes; read-out: IC50

IC50 [µM] | Compound
5.8 | CN(C)CCCNC(=O)c1ccc(-c2cc(-c3ccc(Cl)cc3)on2)cc1 [Compound 45]
6.1 | CN1CCN(CCCNC(=O)c2ccc(-c3cc(-c4ccc(Cl)cc4)on3)cc2)CC1 [Compound 46]
18.1 | COc1ccc(-c2cc(-c3ccc(C(=O)NCCCN(C)C)cc3)no2)cc1 [Compound 48]

Same assay, conditions: Table 6; inhibition of I125-IL-8 (0.125 nM) binding to human neutrophils, 37° C. 60 minutes; read-out: IC50

IC50 [µM] | Compound
5.35 | CN(C)CCCNc1ccc(-c2nc(-c3ccc(Cl)cc3)no2)cn1 [Compound 54, 1,3-propanediamine, N^1-[5-[3-(4-chlorophenyl)-1,2,4-oxadiazol-5-yl]-2-pyridinyl]-N^3, N^3-dimethyl-]
4.78 | CN(C)CCCOc1ccc(-c2nc(-c3ccc(Cl)cc3)no2)cn1 [Compound 55]

Same assay, conditions: unlabelled IL-8 as standard in the I125-IL-8 binding assay; read-out: IC50 of standard antagonist

IC50 [µM] | Compound
~0.001 | Unlabelled IL-8: Unlabelled IL-8 (Interleukin-8, chemotactic cytokine) serves as the standard antagonist in the binding assay [reference compound]
